The source of these data is US12577257B2, “Heterocyclic compounds” (Hoffmann-La Roche Inc., priority 2018, dated 2026).

The experiment concerns the target T1, MAGL (Homo sapiens, UniProt Q99685).
T1 sequence (Q99685 1-303): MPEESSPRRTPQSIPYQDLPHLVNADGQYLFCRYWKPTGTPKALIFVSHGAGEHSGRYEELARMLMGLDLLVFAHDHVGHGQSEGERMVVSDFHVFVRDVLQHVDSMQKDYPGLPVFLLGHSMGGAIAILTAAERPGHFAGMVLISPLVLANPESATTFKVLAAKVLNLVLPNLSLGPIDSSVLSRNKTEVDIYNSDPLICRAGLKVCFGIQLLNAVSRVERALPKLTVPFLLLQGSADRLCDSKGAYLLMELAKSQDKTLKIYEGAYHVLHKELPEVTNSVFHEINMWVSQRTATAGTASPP
Description: 2-AG assay: MAGL hydrolysis of 2-arachidonoylglycerol to arachidonic acid, followed by mass spectrometry. Format: biochemical. The following applies: footnote [a]: measured in 2-AG assay. The method, then:
Alternatively, compounds were profiled for MAGL inhibitory activity by determining the enzymatic activity by following the hydrolysis of the natural substrate 2-arachidonoylglycerol resulting in arachidonic acid, which can be followed by mass spectrometry. This assay is hereinafter abbreviated “2-AG assay”.
The 2-AG assay was carried out in 384 well assay plates (PP, Greiner Cat #784201) in a total volume of 20 μL. Compound dilutions were made in 100% DMSO (VWR Chemicals 23500.297) in a polypropylene plate in 3-fold dilution steps to give a final concentration range in the assay from 12.5 μM to […]. 0.25 μL compound dilutions (100% DMSO) were added to 9 μL MAGL in assay buffer (50 mM TRIS (GIBCO, 15567-027), 1 mM EDTA (Fluka, 03690-100 ml), 0.01% (v/v) Tween. After shaking, the plate was incubated for 15 min at RT. To start the reaction, 10 μL 2-arachidonoylglycerol in assay buffer was added. The final concentrations in the assay was […] and 8 μM 2-arachidonoylglycerol. After shaking and 30 min incubation at RT, the reaction was quenched by the addition of 40 μL of acetonitrile containing 4 μM of d8-arachidonic acid. The amount of arachidonic acid was traced by an online SPE system (Agilent Rapidfire) coupled to a triple quadrupole mass spectrometer (Agilent 6460). A C18 SPE cartridge (G9205A) was used in an acetonitrile/water liquid setup. The mass spectrometer was operated in negative electrospray mode following the mass transitions 303.1→259.1 for arachidonic acid and 311.1→267.0 for d8-arachidonic acid. The activity of the compounds was calculated based on the ratio of intensities [arachidonic acid/d8-arachidonic acid].

The term IC50 denotes the concentration that gives 50% inhibition. The low end stands for greater potency in that assay, the high end for weaker potency in that assay.

`O=C1CO[C@H]2CCN(C(=O)N3CCC4(CC3)C[C@@H](NS(=O)(=O)c3ccccc3)CO4)C[C@H]2N1` (mixture of isomers) [Example 18, rac-(4aR,8aS)—N—((R)-8-(3-oxooctahydro-2H-pyrido[4,3-b][1,4]oxazine-6-carbonyl)-1-oxa-8-azaspiro[4.5]decan-3-yl)benzenesulfonamide]: the IC50 amounted to 316 nM.

`O=C1CO[C@H]2CCN(C(=O)N3CCC4(CC3)C[C@H](NS(=O)(=O)c3ccccc3)CO4)C[C@H]2N1` (mixture of isomers) [Example 19, rac-(4aR,8aS)-N-((S)-8-(3-oxooctahydro-2H-pyrido[4,3-b][1,4]oxazine-6-carbonyl)-1-oxa-8-azaspiro[4.5]decan-3-yl)benzenesulfonamide] returned a 50% inhibitory concentration (IC50) of 821 nM.

In turn, `O=C1CO[C@H]2CCN(C(=O)N3CCC4(CC3)CC(NCc3ccc(F)cc3Cl)CO4)C[C@H]2N1` (mixture of isomers) [Example 38, rac-(4aR,8aS)-6-(3-((2-Chloro-4-fluorobenzyl)amino)-1-oxa-8-azaspiro[4.5]decane-8-carbonyl)hexahydro-2H-pyrido[4,3-b][1,4]oxazin-3(4H)-one] showed a half-inhibitory concentration (IC50) of 416 nM.

As for `CN(Cc1ccc(F)cc1Cl)C1COC2(CCN(C(=O)N3CC[C@@H]4OCC(=O)N[C@@H]4C3)CC2)C1` (single isomer, unassigned) [Example 33], the half-inhibitory concentration (IC50) stood at 129 nM.

Compound `CN(Cc1ccc(F)cc1Cl)C1COC2(CCN(C(=O)N3CC[C@@H]4OCC(=O)N[C@@H]4C3)CC2)C1` (single isomer, unassigned) [Example 34] displayed an IC50 of 133 nM.

On to `O=C1CO[C@H]2CCN(C(=O)N3CCC4(CC3)CC(NCc3ccc(F)cc3Cl)CO4)C[C@H]2N1` (single isomer, unassigned) [Example 35], for which half-maximal inhibition (IC50) required 182 nM.

`O=C1CO[C@H]2CCN(C(=O)N3CCC4(CC3)CC(NCc3ccc(F)cc3Cl)CO4)C[C@H]2N1` (single isomer, unassigned) [Example 36] yielded an IC50 of 279 nM.

`O=C1CO[C@H]2CCN(C(=O)N3CCC4(CC3)CC(NS(=O)(=O)c3ccc(C(F)(F)F)cc3)CO4)C[C@H]2N1` (stereo in doubt) [Example 29, N-((S)-8-((4aR,8aS)-3-Oxooctahydro-2H-pyrido[4,3-b][1,4]oxazine-6-carbonyl)-1-oxa-8-azaspiro[4.5]decan-3-yl)-4-(trifluoromethyl)benzenesulfonamide] came in with a 50% inhibitory concentration (IC50) of 47.5 nM.

For the compound `O=C1CO[C@H]2CCN(C(=O)N3CCC4(CC3)CC(NS(=O)(=O)c3ccc(F)cc3Cl)CO4)C[C@H]2N1` (stereo in doubt) [Example 31, 2-Chloro-4-fluoro-N-((S)-8-((4aR,8aS)-3-oxooctahydro-2H-pyrido[4,3-b][1,4]oxazine-6-carbonyl)-1-oxa-8-azaspiro[4.5]decan-3-yl)benzenesulfonamide], the half-maximal inhibitory concentration (IC50) amounted to 51.3 nM.

In the case of `O=C1CO[C@H]2CCN(C(=O)N3CCC4(CC3)CC(NS(=O)(=O)c3cccc(C(F)(F)F)c3)CO4)C[C@H]2N1` (stereo in doubt) [Example 32, N-((S)-8-((4aR,8aS)-3-Oxooctahydro-2H-pyrido[4,3-b][1,4]oxazine-6-carbonyl)-1-oxa-8-azaspiro[4.5]decan-3-yl)-3-(trifluoromethyl)benzenesulfonamide], the 50% inhibitory concentration (IC50) was found to be 124 nM.

`O=C1CO[C@H]2CCN(C(=O)N3CC4(CC(Oc5ccc(F)cc5Cl)C4)C3)C[C@H]2N1` (stereo in doubt) [Example 41, (4aR,8aS)-6-(6-(2-Chloro-4-fluorophenoxy)-2-azaspiro[3.3]heptane-2-carbonyl)hexahydro-2H-pyrido[4,3-b][1,4]oxazin-3(4H)-one] gave an IC50 of 466 nM.

In turn, `O=C1CO[C@H]2CCN(C(=O)N3CC4(CC(Oc5ccc(F)cc5Cl)C4)C3)C[C@H]2N1` [Example 1, (4aR,8aS)-6-(6-(2-Chloro-4-fluorophenoxy)-2-azaspiro[3.3]heptane-2-carbonyl)hexahydro-2H-pyrido[4,3-b][1,4]oxazin-3(4H)-one] showed an IC50 of 4.5 nM.

The compound `O=C1CO[C@H]2CCN(C(=O)N3CC4(CC(Oc5ccc(C(F)(F)F)cc5)C4)C3)C[C@H]2N1` [Example 2, (4aR,8aS)-6-(6-(4-(Trifluoromethyl)phenoxy)-2-azaspiro[3.3]heptane-2-carbonyl)hexahydro-2H-pyrido[4,3-b][1,4]oxazin-3(4H)-one] yielded an IC50 of 5 nM.

In turn, `O=C1CO[C@H]2CCN(C(=O)N3CC4(CC(Oc5ccc(C(F)(F)F)cc5F)C4)C3)C[C@H]2N1` [Example 3, (4aR,8aS)-6-(6-(2-Fluoro-4-(trifluoromethyl)phenoxy)-2-azaspiro[3.3]heptane-2-carbonyl)hexahydro-2H-pyrido[4,3-b][1,4]oxazin-3(4H)-one] yielded an IC50 of 2.3 nM.

`O=C1CO[C@H]2CCN(C(=O)N3CC4(CC(Oc5ccc(OC(F)(F)F)cc5F)C4)C3)C[C@H]2N1` [Example 4, (4aR,8aS)-6-(6-(2-Fluoro-4-(trifluoromethoxy)phenoxy)-2-azaspiro[3.3]heptane-2-carbonyl)hexahydro-2H-pyrido[4,3-b][1,4]oxazin-3(4H)-one] registered an IC50 of 3 nM.

The compound `O=C1CO[C@H]2CCN(C(=O)N3CC4(CC(Oc5ccc(OC(F)(F)F)cc5Cl)C4)C3)C[C@H]2N1` [Example 5, (4aR,8aS)-6-(6-(2-Chloro-4-(trifluoromethoxy)phenoxy)-2-azaspiro[3.3]heptane-2-carbonyl)hexahydro-2H-pyrido[4,3-b][1,4]oxazin-3(4H)-one] had an IC50 of 0.6 nM.

On to `COc1ccc(C(F)(F)F)cc1OC1CC2(C1)CN(C(=O)N1CC[C@@H]3OCC(=O)N[C@@H]3C1)C2` [Example 6, (4aR,8aS)-6-(6-(2-Methoxy-5-(trifluoromethyl)phenoxy)-2-azaspiro[3.3]heptane-2-carbonyl)hexahydro-2H-pyrido[4,3-b][1,4]oxazin-3(4H)-one], for which the IC50 is 2.8 nM.

In the case of `O=C1CO[C@H]2CCN(C(=O)N3CC4(CC(Oc5ccc(Cl)cc5C(F)(F)F)C4)C3)C[C@H]2N1` [Example 7, (4aR,8aS)-6-(6-(4-Chloro-2-(trifluoromethyl)phenoxy)-2-azaspiro[3.3]heptane-2-carbonyl)hexahydro-2H-pyrido[4,3-b][1,4]oxazin-3(4H)-one], the 50% inhibitory concentration (IC50) was found to be 8.5 nM.

Compound `O=C1CO[C@H]2CCN(C(=O)N3CC4(CC(Oc5ccc(F)cc5F)C4)C3)C[C@H]2N1` [Example 8, (4aR,8aS)-6-(6-(2,4-Difluorophenoxy)-2-azaspiro[3.3]heptane-2-carbonyl)hexahydro-2H-pyrido[4,3-b][1,4]oxazin-3(4H)-one] yielded a 50% inhibitory concentration (IC50) of 10.7 nM.

Take `O=C1CO[C@H]2CCN(C(=O)N3CC4(CC(Oc5cc(F)cc(C(F)(F)F)c5)C4)C3)C[C@H]2N1` [Example 9, (4aR,8aS)-6-(6-(3-Fluoro-5-(trifluoromethyl)phenoxy)-2-azaspiro[3.3]heptane-2-carbonyl)hexahydro-2H-pyrido[4,3-b][1,4]oxazin-3(4H)-one]: the concentration for half-maximal inhibition (IC50) was determined as 12.5 nM.

Consider `O=C1CO[C@H]2CCN(C(=O)N3CCC4(CC3)CC(Oc3ccc(C(F)(F)F)cc3F)C4)C[C@H]2N1` [Example 10, (4aR,8aS)-6-(2-(2-Fluoro-4-(trifluoromethyl)phenoxy)-7-azaspiro[3.5]nonane-7-carbonyl)hexahydro-2H-pyrido[4,3-b][1,4]oxazin-3(4)-one], for which the IC50 was 0.8 nM.
